# Test results: patent US20100209934A1, “METHOD OF IDENTIFYING AGENTS WHICH MODULATE THE ACTIVITY OF CALCIUM-ACTIVATED CHLORIDE CHANNEL” (SNU R&DB FOUNDATION, priority 2007, published 2010)
# Legend:
# mouse ANO1 = test: Whole-cell current recording in mouse ANO1 stable HEK cell line; type: cell-based; settings: 500 nM ionomycin, mANO1 stable HEK cell line
# Protocol: A stable cell line (HEK cells) that constitutively over-expresses mANO1 is constructed for high throughput screening analysis. In order to test whether the HEK cell line elicits ANO1 currents, ionomycin was applied. Application of ionomycin evoked a robust inward Cl^− currents in a whole cell. Pipette and bath solutions contained 140 mM NMDG-Cl.
# HEK293 cells were transfected with pEGFP-N-1-mANO1 using Lipofectamine (Invitrogen Corp., Carlsbad, Calif.). After selection in 800 μg/ml geneticin (Invitrogen Corp., Carlsbad, Calif.) for 15 days, single colonies were picked with cloning cylinders and tested for activity of ANO1.
# To detect active compounds from chemical libraries or other sources of chemicals, a stable cell line, that constitutively expresses mouse ANO1, was constructed in accordance with the method of Reference Example 7. To construct a stable cell line, mouse ANO1 DNA was incorporated to the genomic DNA of human embryonic kidney (HEK) cells.
# This confirms that ANO1 is constitutively expressed in the stable cell line.
# mANO1 = molecular target: T1, mANO1 (Mus musculus, UniProt Q8BHY3, S527P); test: Two-electrode voltage clamp currents in Xenopus oocytes injected with mANO1 complementary RNA; type: cell-based; design: expressed in transfected cells; host or cells: Xenopus laevis oocytes (cRNA injection); settings: ionomycin 4 μM; mANO1 expressing oocytes
# T1 sequence (Q8BHY3 1-960 S527P): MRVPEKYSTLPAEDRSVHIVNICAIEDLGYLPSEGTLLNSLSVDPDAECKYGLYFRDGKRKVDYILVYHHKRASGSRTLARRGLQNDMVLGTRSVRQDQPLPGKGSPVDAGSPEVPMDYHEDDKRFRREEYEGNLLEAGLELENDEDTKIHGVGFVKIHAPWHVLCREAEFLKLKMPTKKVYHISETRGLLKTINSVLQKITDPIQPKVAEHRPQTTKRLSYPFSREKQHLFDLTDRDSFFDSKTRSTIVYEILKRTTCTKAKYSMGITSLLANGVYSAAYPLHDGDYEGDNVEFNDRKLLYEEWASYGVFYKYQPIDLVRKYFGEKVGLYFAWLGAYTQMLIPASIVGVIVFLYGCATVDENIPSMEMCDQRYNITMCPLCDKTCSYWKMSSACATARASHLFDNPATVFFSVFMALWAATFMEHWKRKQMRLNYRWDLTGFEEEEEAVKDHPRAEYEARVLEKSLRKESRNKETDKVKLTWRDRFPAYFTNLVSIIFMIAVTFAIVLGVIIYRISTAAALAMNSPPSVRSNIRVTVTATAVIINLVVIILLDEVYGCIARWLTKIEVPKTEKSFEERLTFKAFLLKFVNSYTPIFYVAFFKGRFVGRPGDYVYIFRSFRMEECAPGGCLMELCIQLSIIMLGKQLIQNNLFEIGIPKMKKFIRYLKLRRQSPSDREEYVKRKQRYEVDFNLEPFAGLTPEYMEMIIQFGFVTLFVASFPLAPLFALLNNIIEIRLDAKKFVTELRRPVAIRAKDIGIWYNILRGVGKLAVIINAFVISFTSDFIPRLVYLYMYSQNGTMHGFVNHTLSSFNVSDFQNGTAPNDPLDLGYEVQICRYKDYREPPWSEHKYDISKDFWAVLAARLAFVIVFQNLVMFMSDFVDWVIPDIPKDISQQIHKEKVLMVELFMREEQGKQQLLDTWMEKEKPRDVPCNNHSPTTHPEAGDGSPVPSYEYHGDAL
# Protocol: pSDTF-mANO1 obtained in Reference Example 1 was linearized using BamHI. Complementary RNA was transcribed with SP6 RNA polymerase (mMESSAGE mMACHINE® SP6 Kit, Ambion, Austin, Tex.). After being defolliculated with collagenase (Type IA, Sigma), Xenopus laevis oocytes were injected with 50 ng of the complementary RNAs of mANO1 in 50 nl of diethylpyrocarbonate-treated water. Two to five days after the injection, whole cell currents were recorded using the two-electrode voltage clamp technique. The bath solution contained 96 mM NaCl, 1 mM MgCl2, 5 mM HEPES, 2 mM KCl and 1.8 mM CaCl2 at pH 7.5 and was perfused at 2 ml/min. Experiments were performed at room temperature.
# Xenopus oocytes provide a recognized model for endogenous CaCC studies because they express endogenous CaCCs that are required for ‘fertilization depolarization’ (Hartzell, H. C. et al., Mol Pharmacol 51, 683-92 (1997)). Furthermore, the biophysical and pharmacological properties of Xenopus CaCCs are similar to those of mammalian CaCCs (Machaca, K. et al., Calcium-Activated Chloride Channels (ed. Fuller, C. M.) (Academic Press, Amsterdam, 2002)). Accordingly, the present inventors expressed mANO1 in Xenopus oocytes and tested its activation by receptor stimulation using 1 μM LPA (lysophosphatidic acid). CaCCs in Xenopus are known to be activated by LPA (Guo, Z. et al., Proc Natl Acad Sci USA. 93, 14367-72 (1996); and Kim, M. J. et al., Biochem Pharmacol. 59, 241-7 (2000)). […] Moreover, LPA-induced ANO1 currents were outwardly-rectifying, like those of native CaCCs in Xenopus oocytes (Machaca, K. et al., supra) (FIG. 4C). The reversal potential was 37.7±1.05 mV (n=5), which is close to the equilibrium potential of Cl^− in Xenopus oocytes (Weber, W., Biochim Biophys Acta 1421, 213-33 (1999)).
# Indeed, LPA (1 μM) applied to oocytes expressing mANO1 induced a large inward current.
# Further, pretreatment of 1 μM thapsigargin blocked the IP3-induced current in a mANO1-expressing oocyte (FIGS. 10C and 10D).
# LPA-induced ANO1 currents were blocked by Cl^− channel blockers. The Cl^− channel blockers were applied 10˜20 min before the LPA application. […] This blockade of agonist-induced ANO1 currents by DIDS, niflumic acid, or NPPB were also observed in mammalian cells transfected with mANO1.
smiles,measurement,setting,value
C[C@H](CCC(=O)O)C[C@H](C)C[C@H](C)C(=O)/C=C(\O)[C@H](C)C[C@H](C)C/C=C/[C@@H](C)[C@@H](O)[C@@H](C)[C@@H](O)C[C@@H]1CC[C@@](C)([C@H]2CC[C@@](C)([C@@H](C)O)O2)O1 [ionomycin],inward current evoked by ionomycin,mouse ANO1,robust inward current
same,activation of mANO1 by Ca2+ ionophore,mANO1,Activation
